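The compound was tested at five concentrations on cells cultured in 96-well plates, with a 48-hour exposure period. The concentration for 50% growth inhibition is given as GI50.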 The source made the active and inactive calls. No stated cut-off is given here; in the data, active = GI50 up to about 1.1 µM and inactive = higher. Where a SMILES comes first, the peptide text is derived from it. The star is where a group is joined. Boc = CC(C)(C)OC(=O)*; OBn = c1ccc(CO*)cc1
Key:
Assay in all cases: NCI-60 cell line screen, 48 h
[1] = system: A549
[2] = system: ACHN
[3] = system: DU-145
[4] = system: MCF7
[5] = system: MDA-MB-231
[6] = system: MDA-MB-435
[7] = system: NCI-H460
[8] = system: OVCAR-8
[9] = system: PC-3
[10] = system: RXF 393
[11] = system: SK-MEL-28
[12] = system: SK-MEL-5
[13] = system: SK-OV-3
[14] = system: SNB-75
[15] = system: SW-620
[16] = system: T47D
[17] = system: U-251
[18] = system: UO-31
[19] = system: HL-60

Measured: GI50

c1c[nH]c(-c2cccc3nsnc23)c1
inactive: [1] 72.3 µM | [2] 71.9 µM | [3] > 100 µM | [4] 6.7 µM | [5] 99.3 µM | [6] > 100 µM | [7] 65.2 µM | [8] 78 µM | [9] 95.9 µM | [10] 38.1 µM | [11] > 100 µM | [12] > 100 µM | [13] > 100 µM | [14] 49.4 µM | [15] > 100 µM | [16] 3.78 µM | [17] > 100 µM | [18] 44.6 µM

CC(C)CC(=O)NC(C(=O)NC(C(=O)NC(CC(C)C)C(O)CC(=O)NC(C)C(=O)NC(CC(C)C)C(O)CC(=O)O)C(C)C)C(C)C (centres undefined)
inactive: [1] > 100 µM | [2] > 100 µM | [3] > 100 µM | [4] > 100 µM | [5] > 100 µM | [6] > 100 µM | [7] > 100 µM | [8] > 100 µM | [9] > 100 µM | [11] > 100 µM | [12] > 100 µM | [13] > 100 µM | [14] > 100 µM | [15] > 100 µM | [17] > 100 µM | [18] > 100 µM

O=C(/C=C1/Nc2ccc([N+](=O)[O-])cc2N/C1=C/C(=O)c1ccccc1)c1ccccc1
inactive: [1] 36.3 µM | [2] 39.8 µM | [3] 43.7 µM | [4] 21 µM | [5] 16.6 µM | [6] > 100 µM | [7] 13.7 µM | [8] 16.8 µM | [9] 43.7 µM | [10] 14.3 µM | [12] 38 µM | [13] 23 µM | [14] 16.9 µM | [16] 18.3 µM | [17] 13.5 µM | [18] 18.6 µM

CC1(C)C2CCC(N)(C2)C1O (centres undefined)
inactive: [1] > 100 µM | [2] > 100 µM | [3] > 100 µM | [19] > 10 µM | [4] > 100 µM | [6] > 100 µM | [7] > 100 µM | [8] > 100 µM | [9] > 100 µM | [10] > 100 µM | [11] > 100 µM | [12] > 100 µM | [13] > 100 µM | [14] > 100 µM | [15] > 100 µM | [16] > 100 µM | [17] > 100 µM | [18] > 100 µM

CC(C(N)=O)N(C)C(=O)c1cnc2ccccc2c1 (centres undefined)
inactive: [1] > 100 µM | [2] > 100 µM | [3] > 100 µM | [19] > 100 µM | [4] > 100 µM | [5] > 100 µM | [6] > 100 µM | [7] > 100 µM | [8] > 100 µM | [9] > 100 µM | [10] > 100 µM | [11] > 100 µM | [12] > 100 µM | [14] > 100 µM | [15] > 100 µM | [16] > 100 µM | [17] > 100 µM | [18] > 100 µM

CC(C)CC(NC(=O)OC(C)(C)C)C(=O)N1CCCC1C(=O)OCc1ccccc1 (stereo not drawn) (Boc-Leu-Pro-OBn; configuration not given here)
inactive: [1] > 100 µM | [2] > 100 µM | [3] > 100 µM | [4] 67.8 µM | [5] > 100 µM | [6] > 100 µM | [8] > 100 µM | [9] > 100 µM | [10] > 100 µM | [11] 76.7 µM | [12] > 100 µM | [13] > 100 µM | [14] > 100 µM | [15] > 100 µM | [16] > 100 µM | [17] > 100 µM | [18] 75 µM

Cc1ccc(C(=O)N/N=C(\N=N\c2ccc(C(=O)O)cc2)c2ccc(N(CCC#N)CCC#N)cc2C)cc1
inactive: [1] > 100 µM | [2] > 100 µM | [3] > 100 µM | [19] 79.3 µM | [4] > 100 µM | [5] > 100 µM | [6] > 100 µM | [7] > 100 µM | [8] > 100 µM | [9] > 100 µM | [10] 32.1 µM | [11] > 100 µM | [12] > 100 µM | [13] 80.7 µM | [14] 43.9 µM | [15] > 100 µM | [16] 70.5 µM | [17] > 100 µM | [18] > 100 µM

N#C/C(=C/NC(N)=S)C(N)=O
inactive: [1] > 100 µM | [2] > 100 µM | [3] > 100 µM | [19] > 100 µM | [4] > 100 µM | [5] > 100 µM | [6] > 100 µM | [7] > 100 µM | [8] > 100 µM | [10] > 100 µM | [11] > 100 µM | [12] > 100 µM | [13] > 100 µM | [14] > 100 µM | [15] > 100 µM | [16] > 100 µM | [17] > 100 µM | [18] > 100 µM

O=C1C(Cl)C(c2cccc([N+](=O)[O-])c2)N1n1cnc2ccccc2c1=O (centres undefined)
inactive: [1] > 100 µM | [2] > 100 µM | [19] 57 µM | [7] 50.9 µM | [8] > 100 µM | [10] > 100 µM | [11] > 100 µM | [12] > 100 µM | [13] > 100 µM | [14] 65.8 µM | [15] > 100 µM | [17] > 100 µM | [18] 14.7 µM

OC1c2[nH]c3ccccc3c2CCN2CCCCC12 (centres undefined)
inactive: [1] > 100 µM | [2] > 100 µM | [3] > 100 µM | [19] > 100 µM | [4] > 100 µM | [5] > 100 µM | [6] > 100 µM | [7] > 100 µM | [8] > 100 µM | [9] > 100 µM | [10] > 100 µM | [11] > 100 µM | [13] > 100 µM | [14] 59.4 µM | [15] > 100 µM | [16] > 100 µM | [17] > 100 µM

CC(N)Cc1cccc(C(F)(F)F)c1 (centres undefined)
inactive: [1] > 100 µM | [2] > 100 µM | [19] > 100 µM | [7] > 100 µM | [8] > 100 µM | [10] > 100 µM | [11] > 100 µM | [12] > 100 µM | [13] > 100 µM | [14] > 100 µM | [15] > 100 µM | [17] > 100 µM | [18] > 100 µM

O=C1Nc2ccccc2[C@]12C[C@H]2c1ccccn1
inactive: [1] > 100 µM | [2] > 100 µM | [3] > 100 µM | [4] > 100 µM | [5] > 100 µM | [6] > 100 µM | [7] > 100 µM | [9] > 100 µM | [10] > 100 µM | [11] > 100 µM | [12] > 100 µM | [13] > 100 µM | [15] > 100 µM | [16] > 100 µM | [17] > 100 µM | [18] > 100 µM
